One may read the Kd as the constant that tells how readily two partners part at equilibrium. A higher Kd goes with a looser complex.

“Also recorded” adds a separate entry of the source. Non-standard residues stand in square brackets, D forms with d. No end group written: not given here. pT = C[C@@H](OP(=O)(O)O)[C@H](N)C(=O)O

The target of experiment [1] is Fha7-267^WT. The experiment in a line: Isothermal titration calorimetry (ITC) of TssL/CHK2 peptides with Fha7-267^WT. It is filed as binding, A. tumefaciens. To be noted: 25°C, 50 mM Tris-HCl (pH 8.0), 150 mM NaCl, 200 µM protein in cell, 6 mM peptide in syringe, result in words. From the text: Because FHA domains are well known to bind to pThr residues specifically [33]–[35], we hypothesized that Fha specifically binds Thr 14-phosphorylated TssL to activate type VI secretion. To test this hypothesis, we first performed isothermal titration calorimetry (ITC) analysis with purified Fha proteins and synthetic phosphorylated- and unphosphorylated TssL N-terminal peptides. Because of the instability of full-length Fha protein purified from E. coli (data not shown), we purified truncated Fha proteins with different lengths for the ITC experiments (Figure S6A). […] The binding affinity was ∼3-fold higher (Kd 0.54±0.07 mM) with a longer phosphorylated TssL peptide (DNPSSWQDLPpTVVEITEESR, p-TssL^20 mer) (Figure 6B). […] (Figure 6C, 6E).
Figure 6 Phosphorylated TssL is a direct binding partner of Fha. Isothermal titration calorimetry (ITC) of specific binding between Fha and TssL peptides. […]
ITC analysis was used to determine the binding affinity and stoichiometry between Fha and TssL T-14 peptide with use of the MicroCal iTC200 system (GE Healthcare) and analyzed with ORIGIN software. […] The titration heat was calculated to eliminate the effect of heat generated from titrating the ligand into buffer. […]
(In ITC the heat of successive injections is recorded.)

For experiment [2], the target named is Fha7-309^WT. The experiment in a line: Isothermal titration calorimetry (ITC) of TssL peptides with Fha7-309^WT. To be noted: 25°C, 50 mM Tris-HCl (pH 8.0), 150 mM NaCl, 200 µM protein in cell, 6 mM peptide in syringe, result in words. It is filed as binding, A. tumefaciens. The procedure:
ITC analysis was used to determine the binding affinity and stoichiometry between Fha and TssL T-14 peptide with use of the MicroCal iTC200 system (GE Healthcare) and analyzed with ORIGIN software. Truncated His-tagged Fha^7–267 and Fha^7–309 proteins were overexpressed and purified from E. coli BL21(DE3) as described. The proteins and various synthetic peptides were dissolved in buffer containing 50 mM Tris-HCl (pH 8.0), 150 mM NaCl. Synthetic phosphorylated TssL (DLPpTVVEI, p-TssL^8 mer; DNPSSWQDLPpTVVEITEESR, p-TssL^20 mer), unphosphorylated TssL (DLPTVVEI, TssL^8 mer), and phosphorylated CHK2 (VSpTQEL, p-CHK2^6 mer) peptides, were used to titrate the various Fha^7–267 or Fha^7–309 proteins at 25°C with a total 25 times of injections with 200 µM protein in the sample cell and 6 mM peptide in the injection syringe. The titration heat was calculated to eliminate the effect of heat generated from titrating the ligand into buffer. […]
Supplementary file ppat.1003991.s006.tif: Figure S6 SDS-PAGE analysis of purified Fha proteins and isothermal titration calorimetry (ITC) analysis. […] Five µg of purified Fha proteins (Fha7-267^WT, Fha7-267^R30AS46A, Fha7-309^WT) was analyzed by 12% SDS-PAGE and stained by Coomassie blue to ensure protein purity. […]

In experiment [3] the target is Fha7-267^WT (truncated His-tagged Fha with the intact FHA domain) (Agrobacterium tumefaciens C58). The experiment in a line: ITC; MicroCal iTC200; 200 µM Fha protein in the sample cell, 6 mM peptide in the injection syringe, 25 injections, 25°C, 50 mM Tris-HCl (pH 8.0), 150 mM NaCl; One Set of Sites model with the N value fixed at 1.
For experiment [4], the target named is Fha7-309^WT (longer version of the truncated Fha protein) (Agrobacterium tumefaciens C58). The description is as above.

On to “DLPTVVEI [TssL^8 mer, synthetic unphosphorylated TssL peptide (DLPTVVEI)]”, for which the “equilibrium dissociation constant (Kd), binding not detectable” value in experiment [1] was “could not detect the binding affinity; also recorded: Undetectable”. For the same molecule, the “binding affinity, not detectable” value in experiment [2] was “undetectable”.
In the case of “VSpTQEL [p-CHK2^6 mer, 6 mer phosphorylated CHK2 peptide (VSpTQEL), control, reference compound]”, the “equilibrium dissociation constant (Kd), binding not detectable” value in experiment [1] is listed as “could not detect the binding affinity; also recorded: Undetectable”.
Take DNPSSWQDLP[pT]VVEITEESR [20 mer phosphorylated TssL peptide (…p…)]: the Kd in experiment [3] stood at 540 µM.
Take DLP[pT]VVEI [8 mer phosphorylated TssL peptide (DLPpTVVEI)]: the Kd in experiment [3] was determined as 1580 µM; in experiment [4], 2150 µM.

Source of the values: article PMC3953482, “Fha Interaction with Phosphothreonine of TssL Activates Type VI Secretion in Agrobacterium tumefaciens” (PLoS Pathogens, 2014).
